Laboratory results from US8946302B2, “Selective sigma-1 receptor ligands” (Wisconsin Alumni Research Foundation, priority 2008, dated 2015).
“And” between values parts separate entries of the source, which are not always exact repeats. Equal values may be shown once. Read-outs that look alike come from different tables or passages of the source.

How the values were obtained:
[1] = tested on: Du145; test: Cytotoxicity assay Du145; type: cell-based; conditions: Homo sapiens, DU-145, HU Prostate, read-out: IC50 (SE) growth inhibition
Experimental: (§1) Multi-plex cytotoxicity assays were performed by the Keck-UWCCC Small Molecule Screening Facility (Madison, Wis.). Specific methodology can be found online at http://hts.wisc.edu/Resources.htm#mpa.

[2] = tested on: HT-29; test: Cytotoxicity assay HT-29; type: cell-based; conditions: Homo sapiens, HU Colorectal, read-out: IC50 (SE) growth inhibition
Experimental: as §1

[3] = tested on: A549; test: Cytotoxicity assay A549; type: cell-based; conditions: Homo sapiens, HU lung, read-out: IC50 (SE) growth inhibition
Experimental: as §1

[4] = target: T1, sigma-2 receptor (Rattus norvegicus, UniProt Q5U3Y7); test: Sigma-2 competitive binding, [3H]-DTG with (+)-pentazocine, rat liver membranes (Example 6); parameters: from tissue; host or cells: rat liver membranes
T1 sequence (Q5U3Y7 1-176): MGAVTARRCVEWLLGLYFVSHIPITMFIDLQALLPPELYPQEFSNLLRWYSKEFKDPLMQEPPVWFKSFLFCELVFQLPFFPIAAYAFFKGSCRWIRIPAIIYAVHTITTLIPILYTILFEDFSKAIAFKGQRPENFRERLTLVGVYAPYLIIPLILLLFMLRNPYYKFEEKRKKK
Experimental: (§2) Minced frozen rat livers or guinea pig livers (65 g) were thawed in 100 mL homogenization buffer (10 mM phosphate buffer pH 7.4 containing 0.32M sucrose, 1 M MgSO4, 0.5 M EGTA, 1 mM phenylmethylsulphonyl fluoride (PMSF), 10 μg/mlleupeptin, 1 μg/ml pepstatin A, 10 μg/ml p-toluenesulfonyl-L-arginine methyl ester (TAME) and then homogenized on ice with a Brinkman polytron homogenizer (setting 6, 4 bursts of 10 second each) followed by a glass homogenizer (Teflon pestle by 6 slow passes at 3,000 rpm). The homogenized tissues were then centrifuged at 17,000 g for 10 minutes. The supernatants were re-centrifuged at 100,000 g for 1 hour. The microsomal pellets were resuspended in homogenization buffer, snap frozen with dry ice-ethanol, and stored at −80° C. at a final protein concentration of 20 mg/mL.
(§3) Assays for sigma-1 were performed using 10 nM (+)-[^3H]pentazocine in guinea pig liver homogenates (25 μg/well) incubated at 30° C. for 1 hour with several concentrations of competing ligands. After incubation, membranes were harvested on a 0.5% PEI-treated Whatman GF/B filters using a Brandel Cell Harvester. (+)-[^3H]pentazocine binding was determined by liquid scintillation counting. […] Serial concentrations of the compounds evaluated were added to the reactions for 45 minutes at 30° C. and the samples vacuum filtered through 0.5% polyethyleneimine (PEI) treated Whatman GF/B as described above to measure displacement of the radioligands from the sigma receptor subtypes.

[5] = tested on: HCT-45; test: Cytotoxicity assay HCT-45; type: cell-based; conditions: Homo sapiens, HU Colorectal, read-out: IC50 (SE) growth inhibition
Experimental: as §1

[6] = tested on: MCF7; test: Cytotoxicity assay MCF7; type: cell-based; conditions: Homo sapiens, HU Breast, read-out: IC50 (SE) growth inhibition
Experimental: as §1

[7] = tested on: SF268; test: Cytotoxicity assay SF268; type: cell-based; conditions: Homo sapiens, SF-268, HU CNS, read-out: IC50 (SE) growth inhibition
Experimental: as §1

[8] = target: T2, sigma-1 receptor (Cavia porcellus, UniProt Q60492); test: Sigma-1 competitive binding, (+)-[3H]pentazocine, guinea pig liver membranes (Example 6); parameters: from tissue; host or cells: guinea pig liver membranes;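 further: compounds tested over serial concentrations, 45 min incubation at 30 °C with membrane preparations, read-out is displacement of bound radioligand from the receptor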
Experimental: as §2, §3

[9] = tested on: HI299; test: Cytotoxicity assay HI299; type: cell-based; conditions: Homo sapiens, HU Lung, read-out: IC50 (SE) growth inhibition
Experimental: as §1

[10] = tested on: NCI-H460; test: Cytotoxicity assay NCI-H460; type: cell-based; conditions: Homo sapiens, HU lung, read-out: IC50 (SE) growth inhibition
Experimental: as §1

[11] = tested on: SKOV-3; test: Cytotoxicity assay SKOV-3; type: cell-based; conditions: Homo sapiens, SK-OV-3, HU Ovarian, read-out: IC50 (SE) growth inhibition
Experimental: as §1

[12] = tested on: tumor cell lines; test: Cytotoxicity assays, various tumor cell lines (statements in words); type: cell-based, human
Experimental: Because sigma-1 receptors are overexpressed in numerous tumor cell lines, which include breast cancer, lung carcinoma, renal carcinoma, colon carcinoma, sarcoma, brain tumors, melanoma, glioblastoma, neuroblastoma, and prostate cancer, the ability of the compounds to inhibit the growth of various tumor cell lines were tested.
as §1

[13] = tested on: MCP10A; test: Cytotoxicity assay MCP10A; type: cell-based; conditions: Homo sapiens, HU Breast, read-out: IC50 (SE) growth inhibition
Experimental: as §1

[14] = tested on: MB-MDA-231; test: Cytotoxicity assay MB-MDA-231; type: cell-based; conditions: Homo sapiens, HU Breast, read-out: IC50 (SE) growth inhibition
Experimental: as §1

[15] = target: T2, sigma-1 receptor; test: Affinity for the sigma-1 receptor (Table 3); type: binding; parameters: from tissue; conditions: read-out: Sigma-1 KD
[16] = target: T3, purified sigma-1 receptor (Cavia porcellus, UniProt Q60492); test: Competitive displacement of [3H]-(+)-pentazocine at the pure sigma-1 receptor; type: binding, guinea pig; conditions: read-out: Ki Pure σ-1R
T3 construct: made in house; host or cells: E. coli BL21 DE3
Experimental: A guinea pig sigma-1 receptor was purified as previously described (Ramachandran et al., Protein Expr. Purif., 2007. 51(2): 283-92). The pMal P2X plasmid (New England Biolabs) encoding the guinea pig sigma-1 receptor on the C-terminus of the E. coli Maltose Binding Protein was used for purification. The sigma-1 receptor on its C-terminus carried a hexa-histadine epitope tag. Protein was expressed in the E. coli strain BL21 DE3 (Novagen) with 0.6 mM IPTG. The E. coli pellet was sonicated and centrifuged at 100,000 g for 1 hour to separate the particulate and soluble fractions. The particulate fraction was extracted with Triton X-100, centrifuged and the extract was loaded onto an amylose resin (New England Biolabs, E-802). After washing the resin with buffer containing 0.5% Triton X-100, the MBP-sigma-1 receptor fusion protein was eluted with buffer containing 10 mM maltose.
The MBP-sigma-1-receptor fusion protein was cleaved with Factor Xa protease (Novagen) at room temperature for 24-48 hours and the cleavage was monitored with SDS-polyacrylamide gel electrophoresis. The sigma-1 receptor from the Factor Xa cleavage was purified with a HIS-Select HC Nickel affinity gel (Sigma-Aldrich P6611) in a batch format. The resin was washed with buffer containing 0.5% Triton X-100 detergent and the beads were separated by a brief centrifugation at 4000 rpm in a microcentrifuge. After washing to remove MBP, the pure sigma-1 receptor was eluted in buffer containing 250 mM imidazole.
To remove the undigested MBP-sigma-1 receptor fusion protein that is carried over in the Ni^2+ purification, the eluate from the Ni^2+ purification was incubated with Anti-MBP antibody conjugated to agarose (Vector Laboratories, Burlingame, Calif.) at 4° C. for 18-24 hours. The beads were separated by centrifugation and the supernatant contained the pure sigma-1 receptor.
Competition ligand binding to the pure sigma-1 receptor was performed as previously described. […] After incubation at 30° C. for 60 minutes, the reaction was terminated by rapid filtration through glass fiber filters (Whatman GF/B), using a Brandel cell harvester (Brandel, Gaithersburg, Md.). The glass fiber filters were pre-soaked in 0.5% polyethyleneimine (PEI) for at least 1 hour at room temperature (˜23° C.). Filters were washed 4 times with 4 mL of ice-cold 50 mM Tris-C1, pH 8.0. Radioactivity was quantified by liquid scintillation counting using a Packard model 1600 CA scintillation counter.

[17] = target: T4, σ-2 Sites (Rattus norvegicus, UniProt Q5U3Y7); test: σ-2 sites radioligand binding, rat liver membranes (Table 2)
T4 construct: from tissue
T4 sequence (Q5U3Y7 1-176): T1 sequence (Q5U3Y7 1-176)
Experimental: as §3

[18] = target: T5, σ-1 Sites (Cavia porcellus, UniProt Q60492); test: σ-1 sites radioligand binding, guinea pig liver membranes (Table 2); conditions: for Ki: guinea pig liver membranes; for σ-1 selectivity σ-2 Ki/σ-1 Ki: σ-2 rat liver / σ-1 guinea pig liver membranes
T5 construct: from tissue
Experimental: as §3

[19] = rat liver membranes, n = 3, read-out: Sigma2 KD values
[20] = guinea pig liver membranes, n = 3, read-out: Sigma 1 KD values

T3 sequence (Q60492 whole entry): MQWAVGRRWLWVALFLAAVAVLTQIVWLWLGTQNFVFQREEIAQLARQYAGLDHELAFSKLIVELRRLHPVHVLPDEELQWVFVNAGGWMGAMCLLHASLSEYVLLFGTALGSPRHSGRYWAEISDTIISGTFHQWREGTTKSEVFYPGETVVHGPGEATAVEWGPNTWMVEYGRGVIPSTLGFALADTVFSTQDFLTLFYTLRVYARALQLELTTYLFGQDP
T5 sequence (Q60492 whole entry): as above
T2 sequence (Q60492 whole entry): as above

CCCN(CCCc1ccc(F)cc1)Cc1ccc(N)cc1 [Compound 17, N-Propyl-N-(4-amino-benzyl)-3-(4-fluorophenyl)propylamine]
IC50 [1]: > 100 µM
IC50 [2]: > 100 µM
IC50 [3]: > 100 µM
Kd [4, 19]: 2.15 µM
IC50 [5]: > 100 µM
IC50 [6]: > 100 µM
IC50 [7]: > 100 µM
Ratio (σ2/σ1) [8]: 13.11 ^
Kd [8, 20]: 0.164 µM
IC50 [9]: > 100 µM
IC50 [10]: > 100 µM
IC50 [11]: > 100 µM
cytotoxicity / tumor cell growth inhibition [12]: lacked any cytotoxic properties
IC50 [13]: > 100 µM
IC50 [14]: > 100 µM

CCCN(CCCc1ccc(F)cc1)Cc1ccc(N)c(I)c1 [Compound 14, N-Propyl-N-(4-amino-3-iodo-benzyl)-3-(4-fluorophenyl)propylamine]
Kd [4, 19]: 133 µM
Ratio (σ2/σ1) [8]: 0.3389
Kd [8, 20]: 393 µM

CCCCN(CCCC)CCCc1ccc([N+](=O)[O-])cc1 [HD2]
Kd [15]: 0.00036 µM

CCCC[N+](CCCC)(CCCC)CCCC [Compound 3]
Kd [4]: 268 µM
Kd [8]: 54.7 µM
Ratio (σ2/σ1) [8]: 4.90

CCCCCN [Amylamine]
Ki ([16]; [3H]-(+)-pentazocine 10 nM): 167 ± 35.2 µM

CCCCCCCCCCCCN [Dodecylamine]
Ki ([16]; [3H]-(+)-pentazocine 10 nM): 0.18 µM and 0.2 µM

CN(C)CCc1c[nH]c2ccccc12 [Compound 1]
Kd [8, 20]: > 50000 µM

CCCN(CCCc1ccc([N+](=O)[O-])cc1)CCc1ccc(N)cc1 [HD4]
Kd [15]: 0.006 µM

CCCNCCc1ccc(F)cc1 [Compound 9]
Kd [4]: 0.23 µM
Kd [8]: 0.091 µM
Ratio (σ2/σ1) [8]: 2.53

CCCCN(CCCC)CCCc1ccc(F)cc1 [HD1]
Kd [15]: 0.0177 µM

CCCN(CCCc1ccc(F)cc1)Cc1ccc(N=[N+]=[N-])c(I)c1 [Compound 15]
Ratio (σ2/σ1) [8]: 570.8 ^

CCCCCCCCCCCCCCCCN [Hexadecylamine]
Ki ([16]; [3H]-(+)-pentazocine 10 nM): 2.7 µM and 3 µM

CCCCCCCCCCCCCCCCCCNCCCc1ccc([N+](=O)[O-])cc1 [Compound 1h, N-(3-(4-Nitrophenyl)propyl)octadecan-1-amine]
Ki ([16]; [3H]-(+)-pentazocine): 0.0415 µM
Ki [17]: 8.83 µM
Ki [18]: 26.9 µM
σ-1 selectivity σ-2 Ki/σ-1 Ki [18]: 0.3

CCCCCCCCCCCCCCCCCCNCCCc1ccccc1 [Compound 1g, N-(3-Phenylpropyl)octadecan-1-amine]
Ki ([16]; [3H]-(+)-pentazocine): 0.0422 µM
Ki [17]: 19.9 µM
Ki [18]: 34.4 µM
σ-1 selectivity σ-2 Ki/σ-1 Ki [18]: 0.7

CCCCCCCCCCCCCCCCCCN [Stearylamine]
Ki ([16]; [3H]-(+)-pentazocine 10 nM): 8.5 µM and 8 µM

CCCCCCCCCCCCNCCCc1ccccc1 [Compound 1e, N-(3-Phenylpropyl)dodecan-1-amine]
Ki ([16]; [3H]-(+)-pentazocine): 0.0632 µM
Ki [17]: 2.1 µM
Ki [18]: 5.3 µM

CCCN(CCCc1ccc(F)cc1)CCc1ccc(N=[N+]=[N-])c(I)c1 [HD5]
cytotoxicity / tumor cell growth inhibition [12]: potent cell growth inhibitor of both MB-MDA-231 and MCF7
